Several values for one entry are separate records, joined by “and”; a condition that tells them apart may be missing. Equal values may be shown once. Read-outs that look alike come from different tables or passages of the source.

The subject of assay [1] is pAkt in A549 and D54 cells. The experiment in a line: Cellular PI3K inhibition, Western blot of pAkt in cultured tumor cells. The class given is cell-based, human. To be noted: 1 hour; for PI3K activity indicated by level of pAKT: cultured A549 cells, Western blot vs DMSO. How it is done:
The in vitro MEK1 and PI3K inhibitory activity of these series of compounds was also assessed in cultured tumor cells (D54, A549). Cellular efficacy of MEK1 and PI3K inhibition by inhibitor compounds was measured by changes in phosphorylation of pErk1/2 and pAkt, respectively. […] Cells were incubated in the presence of indicated compounds for 1 hour and lysates probed with specific antibodies against pAKT and pERK 1/2 and compared with vehicle control (DMSO). A549 (FIG. 2A) and D54 (FIG. 2B) cells were treated with inhibitors at the indicated concentrations for 1 hour and subjected to Western blot analysis.
Western Blot Analysis. Cells were seeded in six-well dishes 24 hours prior to treatment and incubated with the respective inhibitor compound solutions for 1 h. Cells were washed with phosphatebuffered saline (PBS) and lysed with NP-40 lysis buffer (1% NP40, 150 mM NaCl, and 25 mM Tris, pH 8.0) supplemented with protease inhibitors (Complete protease inhibitor cocktail, Roche, Basel, Switzerland) and phosphatase inhibitors (PhosSTOP, Roche, Basel, Switzerland). Concentration of protein was determined using Lowry assays (Bio-Rad, Hercules, Calif.), and equal amounts of whole cell protein lysate were loaded in each lane and resolved using 4-12% gradient Bis-Tris gel (Invitrogen, CA). Proteins were transferred to 0.2 μm nitrocellulose membranes (Invitrogen, CA). Membranes were incubated overnight at 4° C. with primary antibodies after blocking, followed by incubation with appropriate horseradish peroxidase (HRP) conjugated secondary antibody at room temperature for 1 hour. ECL-Plus was used to detect the activity of peroxidase according to the manufacturer's protocol (Amersham Pharmacia, Uppsala, Sweden). Antibodies raised against phospho-p44/42 MAPK (Erk1/2) (Thr202/Tyr204), pAKT(5473), phospho-p70 S6K* and total ERK, AKT antibodies were purchased from Cell Signaling Technology (Beverly, Mass., USA), and anti-β actin (conjugated with HRP) was purchased from Abcam (Cambridge, Mass., USA). Secondary HRP antibodies were purchased from Jackson ImmunoResearch (St. Louis, Mo., USA).
A general note: A western blot detects proteins with antibodies after separation by electrophoresis.

For another assay, the target named is T1, MEK1 (Homo sapiens, UniProt Q02750).
T1 construct: purchased Sigma-Aldrich
In words: In vitro MEK1 inhibition assay (Kinase-Glo luminescent kinase assay). In kind it is biochemical. To be noted: average of three experiments each conducted in duplicate.

A further assay has as its system ERK1/2 phosphorylation. The experiment in a line: In vivo MEK1 inhibition in flank D54 and A549 tumor bearing mice (Western blot). To be noted: D54 and A549 tumors; compound 14: 375 mg/kg oral gavage, 2 h.
Another assay deals with A549 lung tumor cells. In words: Cell viability, AlamarBlue assay. In kind it is cell-based, human. To be noted: dose dependence. In general terms: Alamar Blue is a resazurin reagent that responds to reducing activity.
In another assay the test system is Akt phosphorylation. In words: In vivo PI3K inhibition in flank D54 and A549 tumor bearing mice (Western blot). To be noted: D54 and A549 tumors; compound 14: 375 mg/kg oral gavage, 2 h.
Assay [2] deals with pErk1/2 in A549 and D54 cells. In words: Cellular MEK1 inhibition, Western blot of pErk1/2 in cultured tumor cells. Particulars: A549 and D54 cell lines, 1 hour. The class given is cell-based, human.
Description: Western Blot Analysis. […] Cells were washed with phosphatebuffered saline (PBS) and lysed with NP-40 lysis buffer (1% NP40, 150 mM NaCl, and 25 mM Tris, pH 8.0) supplemented with protease inhibitors (Complete protease inhibitor cocktail, Roche, Basel, Switzerland) and phosphatase inhibitors (PhosSTOP, Roche, Basel, Switzerland). […] Proteins were transferred to 0.2 μm nitrocellulose membranes (Invitrogen, CA). Membranes were incubated overnight at 4° C. with primary antibodies after blocking, followed by incubation with appropriate horseradish peroxidase (HRP) conjugated secondary antibody at room temperature for 1 hour. ECL-Plus was used to detect the activity of peroxidase according to the manufacturer's protocol (Amersham Pharmacia, Uppsala, Sweden).
In the next assay the test system is D54 glioma cells. In words: Cell viability, AlamarBlue assay. The class given is cell-based, human. To be noted: dose dependence.
For a further assay, the target named is PI3K (Homo sapiens, UniProt P42336). In words: In vitro PI3K inhibition assay (Adapta TR-FRET). The class given is biochemical. Particulars: average of three experiments each conducted in duplicate. In general terms: TR-FRET usually uses a lanthanide donor and a delayed reading to cut background.
Another assay has as its target T2, PI3Kγ (Homo sapiens, UniProt P48736).
T2 construct: purchased Life Technologies (assay run by the vendor)
The experiment in a line: PI3K subtype enzyme inhibition. The class given is biochemical.

A further assay has as its target T3, PI3Kδ (Homo sapiens, UniProt O00329).
T3 construct: purchased Life Technologies (assay run by the vendor)
The experiment in a line: PI3K subtype enzyme inhibition. In kind it is biochemical.

The next assay addresses mTOR (Homo sapiens, UniProt P42345). The experiment in a line: mTOR enzyme inhibition. The class given is biochemical.
Another assay concerns the target T4, PI3Kβ (Homo sapiens, UniProt P42338).
T4 construct: purchased Life Technologies (assay run by the vendor)
The experiment in a line: PI3K subtype enzyme inhibition. The class given is biochemical.

Another assay concerns the target T5, PI3Kα (Homo sapiens, UniProt P42336).
T5 construct: purchased Life Technologies (assay run by the vendor)
The experiment in a line: PI3K subtype enzyme inhibition. In kind it is biochemical.

The subject of assay [3] is A375 (melanoma), D54 (glioma), CT26 colorectal cancer, A2058 (melanoma) cell lines. The experiment in a line: Concurrent inhibition in tumor cell lines (multifunctional inhibitors). The class given is cell-based. An excerpt:
The synthesis of another series of single entity, multifunctional inhibitors achieved by covalent linking of structural analogs of a PI3K inhibitor mTOR inhibitor, and an MEK inhibitor is also disclosed.

T2 sequence (P48736 whole entry): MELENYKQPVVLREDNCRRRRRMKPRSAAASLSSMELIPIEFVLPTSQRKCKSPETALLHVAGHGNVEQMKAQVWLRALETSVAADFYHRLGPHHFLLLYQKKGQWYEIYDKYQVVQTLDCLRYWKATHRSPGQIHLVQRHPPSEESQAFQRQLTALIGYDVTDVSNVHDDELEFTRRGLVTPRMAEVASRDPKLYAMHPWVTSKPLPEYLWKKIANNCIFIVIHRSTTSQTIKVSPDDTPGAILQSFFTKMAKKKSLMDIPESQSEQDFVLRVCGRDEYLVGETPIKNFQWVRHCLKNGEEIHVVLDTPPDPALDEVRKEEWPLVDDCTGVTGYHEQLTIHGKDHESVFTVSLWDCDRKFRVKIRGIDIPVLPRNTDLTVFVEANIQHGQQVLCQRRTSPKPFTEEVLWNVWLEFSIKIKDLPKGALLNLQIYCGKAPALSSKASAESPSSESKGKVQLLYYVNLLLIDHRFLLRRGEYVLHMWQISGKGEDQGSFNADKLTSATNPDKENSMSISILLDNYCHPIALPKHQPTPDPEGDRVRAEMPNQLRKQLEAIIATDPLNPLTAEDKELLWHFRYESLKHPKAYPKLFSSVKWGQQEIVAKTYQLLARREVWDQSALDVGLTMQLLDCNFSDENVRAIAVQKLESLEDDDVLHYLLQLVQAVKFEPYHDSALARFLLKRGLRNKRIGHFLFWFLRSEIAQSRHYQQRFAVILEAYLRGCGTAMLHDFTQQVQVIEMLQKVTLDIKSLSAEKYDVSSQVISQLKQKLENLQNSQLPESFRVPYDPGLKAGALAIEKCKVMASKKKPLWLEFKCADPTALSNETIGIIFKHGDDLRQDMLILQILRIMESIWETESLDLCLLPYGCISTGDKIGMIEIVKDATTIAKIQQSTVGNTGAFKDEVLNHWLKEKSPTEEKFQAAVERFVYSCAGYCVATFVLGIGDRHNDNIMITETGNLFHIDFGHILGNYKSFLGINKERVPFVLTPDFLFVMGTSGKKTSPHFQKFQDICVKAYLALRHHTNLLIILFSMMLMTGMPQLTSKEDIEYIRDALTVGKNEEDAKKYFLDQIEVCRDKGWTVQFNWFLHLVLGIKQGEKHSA
T4 sequence (P42338 whole entry): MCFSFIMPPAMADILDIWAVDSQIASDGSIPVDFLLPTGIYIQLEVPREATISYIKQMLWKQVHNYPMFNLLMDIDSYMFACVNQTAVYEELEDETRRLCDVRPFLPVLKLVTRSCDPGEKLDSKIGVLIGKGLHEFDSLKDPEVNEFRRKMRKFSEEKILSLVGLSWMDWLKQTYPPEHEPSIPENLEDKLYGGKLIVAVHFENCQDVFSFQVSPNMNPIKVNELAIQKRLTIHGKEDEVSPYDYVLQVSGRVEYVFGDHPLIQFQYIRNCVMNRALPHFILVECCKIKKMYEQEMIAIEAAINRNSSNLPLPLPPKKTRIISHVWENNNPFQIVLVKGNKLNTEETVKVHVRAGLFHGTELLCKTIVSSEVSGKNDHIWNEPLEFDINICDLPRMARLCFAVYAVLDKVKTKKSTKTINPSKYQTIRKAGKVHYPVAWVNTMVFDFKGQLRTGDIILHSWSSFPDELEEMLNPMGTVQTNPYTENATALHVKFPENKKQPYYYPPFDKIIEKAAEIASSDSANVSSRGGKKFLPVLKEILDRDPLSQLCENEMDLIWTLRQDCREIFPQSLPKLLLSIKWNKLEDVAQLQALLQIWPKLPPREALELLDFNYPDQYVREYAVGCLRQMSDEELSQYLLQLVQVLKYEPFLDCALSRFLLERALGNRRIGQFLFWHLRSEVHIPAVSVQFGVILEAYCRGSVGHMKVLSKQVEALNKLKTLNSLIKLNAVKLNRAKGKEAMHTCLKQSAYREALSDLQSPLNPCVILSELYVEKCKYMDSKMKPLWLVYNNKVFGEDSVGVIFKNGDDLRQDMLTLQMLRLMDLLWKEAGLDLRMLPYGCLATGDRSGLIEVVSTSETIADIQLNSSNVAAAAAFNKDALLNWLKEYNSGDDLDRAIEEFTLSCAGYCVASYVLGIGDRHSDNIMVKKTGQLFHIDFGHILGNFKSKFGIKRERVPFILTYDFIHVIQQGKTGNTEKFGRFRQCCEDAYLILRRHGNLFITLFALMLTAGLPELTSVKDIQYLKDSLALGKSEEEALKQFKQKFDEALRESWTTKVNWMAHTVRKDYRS
T4 sequence (P27986 whole entry partner): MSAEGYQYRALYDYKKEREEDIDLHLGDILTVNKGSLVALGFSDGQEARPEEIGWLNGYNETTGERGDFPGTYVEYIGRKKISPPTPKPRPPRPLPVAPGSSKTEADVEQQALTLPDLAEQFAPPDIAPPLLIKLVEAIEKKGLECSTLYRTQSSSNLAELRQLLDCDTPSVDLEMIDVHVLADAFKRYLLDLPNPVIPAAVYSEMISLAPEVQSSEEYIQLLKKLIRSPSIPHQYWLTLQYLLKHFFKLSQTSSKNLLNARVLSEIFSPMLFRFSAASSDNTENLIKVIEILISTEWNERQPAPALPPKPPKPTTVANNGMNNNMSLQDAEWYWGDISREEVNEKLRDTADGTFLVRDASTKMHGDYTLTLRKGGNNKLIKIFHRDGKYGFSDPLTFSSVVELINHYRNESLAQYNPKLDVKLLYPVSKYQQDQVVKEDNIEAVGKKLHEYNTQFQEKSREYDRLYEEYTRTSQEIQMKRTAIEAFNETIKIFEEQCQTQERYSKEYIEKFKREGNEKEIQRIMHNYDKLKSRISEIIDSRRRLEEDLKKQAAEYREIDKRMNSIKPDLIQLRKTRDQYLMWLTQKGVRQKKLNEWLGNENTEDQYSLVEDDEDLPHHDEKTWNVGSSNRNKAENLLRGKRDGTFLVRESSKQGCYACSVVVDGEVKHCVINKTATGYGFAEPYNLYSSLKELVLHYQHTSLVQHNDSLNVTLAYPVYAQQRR
T3 sequence (O00329 whole entry): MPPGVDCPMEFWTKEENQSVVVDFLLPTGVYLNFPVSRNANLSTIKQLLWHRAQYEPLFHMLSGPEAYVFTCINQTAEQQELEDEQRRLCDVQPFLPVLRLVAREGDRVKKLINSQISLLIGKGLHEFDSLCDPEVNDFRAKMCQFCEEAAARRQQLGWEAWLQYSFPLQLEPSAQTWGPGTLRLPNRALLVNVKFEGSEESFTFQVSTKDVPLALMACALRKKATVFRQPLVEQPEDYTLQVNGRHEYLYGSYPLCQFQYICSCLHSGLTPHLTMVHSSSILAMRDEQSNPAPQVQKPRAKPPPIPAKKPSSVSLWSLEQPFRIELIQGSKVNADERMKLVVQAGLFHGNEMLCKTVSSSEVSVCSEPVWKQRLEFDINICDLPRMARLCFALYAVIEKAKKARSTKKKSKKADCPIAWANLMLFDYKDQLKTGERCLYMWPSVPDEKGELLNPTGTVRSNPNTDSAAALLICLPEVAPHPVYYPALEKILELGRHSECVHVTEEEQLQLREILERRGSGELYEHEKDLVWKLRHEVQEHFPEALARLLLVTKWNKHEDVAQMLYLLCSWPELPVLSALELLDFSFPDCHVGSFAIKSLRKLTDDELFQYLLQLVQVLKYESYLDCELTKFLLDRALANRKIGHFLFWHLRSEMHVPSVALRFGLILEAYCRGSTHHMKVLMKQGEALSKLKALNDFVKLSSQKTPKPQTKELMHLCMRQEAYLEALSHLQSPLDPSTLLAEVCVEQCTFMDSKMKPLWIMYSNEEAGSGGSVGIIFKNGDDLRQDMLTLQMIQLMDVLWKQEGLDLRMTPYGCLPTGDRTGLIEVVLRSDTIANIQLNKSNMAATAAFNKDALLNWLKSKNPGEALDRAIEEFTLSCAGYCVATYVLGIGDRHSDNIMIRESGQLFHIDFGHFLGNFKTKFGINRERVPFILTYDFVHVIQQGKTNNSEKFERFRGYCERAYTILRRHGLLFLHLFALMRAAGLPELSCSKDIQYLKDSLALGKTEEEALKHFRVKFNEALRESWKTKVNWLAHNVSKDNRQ
T3 sequence (P27986 whole entry partner): as the sequence (P27986 whole entry partner) above
T5 sequence (P42336 whole entry): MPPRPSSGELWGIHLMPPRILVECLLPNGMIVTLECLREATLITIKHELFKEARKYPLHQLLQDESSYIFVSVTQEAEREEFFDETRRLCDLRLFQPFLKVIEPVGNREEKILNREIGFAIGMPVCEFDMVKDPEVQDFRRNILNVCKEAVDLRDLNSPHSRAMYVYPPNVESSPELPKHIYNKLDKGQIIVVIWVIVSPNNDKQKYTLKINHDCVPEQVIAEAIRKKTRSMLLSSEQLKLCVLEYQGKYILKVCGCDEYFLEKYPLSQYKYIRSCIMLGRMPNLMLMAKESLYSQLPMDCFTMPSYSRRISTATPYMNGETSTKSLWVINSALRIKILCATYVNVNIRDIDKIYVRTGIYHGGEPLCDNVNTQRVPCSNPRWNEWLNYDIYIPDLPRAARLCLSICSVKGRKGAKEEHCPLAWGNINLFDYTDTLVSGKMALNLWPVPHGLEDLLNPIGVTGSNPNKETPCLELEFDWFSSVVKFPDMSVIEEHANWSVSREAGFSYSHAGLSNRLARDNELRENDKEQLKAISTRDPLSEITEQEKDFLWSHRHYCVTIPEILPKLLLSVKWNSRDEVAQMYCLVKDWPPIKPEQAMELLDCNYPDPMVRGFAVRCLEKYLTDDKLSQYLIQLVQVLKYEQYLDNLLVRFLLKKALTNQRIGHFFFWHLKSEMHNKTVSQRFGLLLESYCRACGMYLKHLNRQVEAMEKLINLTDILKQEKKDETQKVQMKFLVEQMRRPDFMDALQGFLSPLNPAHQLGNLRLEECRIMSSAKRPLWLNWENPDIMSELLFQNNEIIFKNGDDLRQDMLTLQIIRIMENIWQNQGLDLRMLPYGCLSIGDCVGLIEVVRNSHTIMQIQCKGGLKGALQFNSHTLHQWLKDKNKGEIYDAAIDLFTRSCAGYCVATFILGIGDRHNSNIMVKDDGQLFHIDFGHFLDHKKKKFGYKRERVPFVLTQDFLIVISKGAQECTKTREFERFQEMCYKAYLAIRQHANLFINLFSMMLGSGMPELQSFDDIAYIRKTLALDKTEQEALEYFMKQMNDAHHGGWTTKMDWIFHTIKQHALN
T5 sequence (P27986 whole entry partner): as the sequence (P27986 whole entry partner) above
Description for ERK1/2 phosphorylation: Four athymic nude Foxn1nu mice were used to evaluate oncogenic target modulation activity in vivo.
In Vivo Evaluation of Inhibitor Efficacy.
Each injectate contained a total volume of 200 μL of cell suspension in 50% RPMI medium mixed with 50% BD Matrigel basement membrane matrix (Becton, Dickinson and Company, East Rutherford, N.J.). […] Tumor tissues were collected from both vehicle and drug-treated groups and subjected to Western blot analysis as previously described.

Broadly, the IC50 is the concentration that inhibits the measured activity by half. For `O=C(CNCCONC(=O)c1ccc(F)c(F)c1Nc1ccc(I)cc1F)NCCCCCC(=O)N1CCN(c2nc(N3CCOCC3)nc(-n3c(C(F)F)nc4ccccc43)n2)CC1` [Compound 7, N-(2-((2-((6-(4-(4-(2-(Difluoromethyl)-1H-benzo[d]imidazol-1-yl)-6-morpholino-1,3,5-triazin-2-yl)piperazin-1-yl)-6-oxohexyl)amino)-2-oxoethyl)amino)ethoxy)-3,4-difluoro-2-((2-fluoro-4-iodophenyl)amino)benzamide], the “PI3K activity indicated by level of pAKT” value in assay [1] is reported as “high potency in inhibiting PI3K activity”. Also, half-maximal inhibition against MEK1 (IC50) required 0.5 ± 1.2 nM.

For the compound `O=C(NOCCNCCCCCC(=O)N1CCN(c2nc(N3CCOCC3)nc(-n3c(C(F)F)nc4ccccc43)n2)CC1)c1ccc(F)c(F)c1Nc1ccc(I)cc1F` [Compound 9, N-(2-((6-(4-(4-(2-(Difluoromethyl)-1H-benzo[d]imidazol-1-yl)-6-morpholino-1,3,5-triazin-2-yl)piperazin-1-yl)-6-oxohexyl)amino)ethoxy)-3,4-difluoro-2-((2-fluoro-4-iodophenyl)amino)benzamide], in the assay on ERK1/2 phosphorylation, the “phosphorylation of ERK1/2 (MEK1 activity) in excised tumor tissue” value was “modulation of ERK1/2 and pAkt levels was also achieved”. Further, in assay [1] (A549 and D54 cell lines, Western blot), the “PI3K inhibition in cells” value was “most pronounced”. Further, in assay [1], the “PI3K activity indicated by level of pAKT” value is reported as “high potency in inhibiting PI3K activity”. For the same compound, the cell viability entry with A549 lung tumor cells is “as effective as the combination of ZSTK474 and PD0325901”; in the assay with D54 glioma cells it was “as effective as the combination of ZSTK474 and PD0325901”. The “phosphorylation of Akt (PI3K activity) in excised tumor tissue” value with Akt phosphorylation is “modulation of ERK1/2 and pAkt levels was also achieved”. The “MEK inhibition in cells” value in [2] is given as “most pronounced”.

With `O=C(NOCCNCCCCS(=O)(=O)N1CCN(c2nc(N3CCOCC3)nc(-n3c(C(F)F)nc4ccccc43)n2)CC1)c1ccc(F)c(F)c1Nc1ccc(I)cc1F` [Compound 11], the IC50 was 191 to 341 nM and 285 nM against PI3K; 56.7 ± 1.3 nM against MEK1.

Turning to `O=S(=O)(Nc1cc(-c2ccc3ncc(N4CCNCC4)nc3c2)cnc1Cl)c1ccc(F)cc1` [ST-5-27], the half-inhibitory concentration (IC50) was 514 ± 0.23 nM at PI3Kγ (read-out: PI3Kγ IC50); 0.83 ± 0.06 nM on PI3Kδ (read-out: PI3Kδ IC50); 5.97 ± 0.27 nM against mTOR; 477 ± 0.92 nM at PI3Kβ (read-out: PI3Kβ IC50); less than 0.495 nM at PI3Kα (read-out: PI3Kα IC50).

`CC(=O)N1CCN(c2cnc3ccc(-c4cnc(Cl)c(NS(=O)(=O)c5ccc(F)cc5)c4)cc3n2)CC1` [ST-5-28]: the concentration for half-maximal inhibition (IC50) was 0.71 ± 0.2 nM on PI3Kγ (read-out: PI3Kγ IC50); less than 0.495 nM at PI3Kδ (read-out: PI3Kδ IC50); 3.13 ± 0.14 nM at mTOR; 5.36 ± 1.1 nM at PI3Kβ (read-out: PI3Kβ IC50); less than 0.495 nM at PI3Kα (read-out: PI3Kα IC50).

With `CN(CCOCCOCCONC(=O)c1ccc(F)c(F)c1Nc1ccc(I)cc1F)CCN(C)CCOCCOCCC(=O)N1CCN(c2nc(N3CCOCC3)nc(-n3c(C(F)F)nc4ccccc43)n2)CC1` [ST-180], the IC50 on PI3Kγ (read-out: PI3K Subtype Enzyme Inhibition Data IC50 PI3Kγ) amounted to 717 ± 136 nM; at PI3Kδ (read-out: PI3K Subtype Enzyme Inhibition Data IC50 PI3Kδ) it was 52 ± 1.4 nM; at PI3Kβ (read-out: PI3K Subtype Enzyme Inhibition Data IC50 PI3Kβ), 2210 ± 425 nM; at PI3Kα (read-out: PI3K Subtype Enzyme Inhibition Data IC50 PI3Kα) it was 39 ± 9 nM. In addition, in assay [3], the “Concurrent inhibition in tumor cell lines” value is “Concurrent inhibition was demonstrated”.

On to `O=C(NOCCOCCOCCOCCC(=O)N1CCN(c2cnc3ccc(-c4cnc(Cl)c(NS(=O)(=O)c5ccc(F)cc5)c4)cc3n2)CC1)c1ccc(F)c(F)c1Nc1ccc(I)cc1F` [ST-182], for which the IC50 at PI3Kγ (read-out: PI3Kγ IC50) came to 34.1 ± 3 nM; on PI3Kδ (read-out: PI3Kδ IC50), 4.22 ± 0.64 nM; on mTOR, 53.1 ± 2.5 nM; on PI3Kβ (read-out: PI3Kβ IC50), 467 ± 44 nM; on PI3Kα (read-out: PI3Kα IC50), 2 ± 0.3 nM.

These data come from US10919877B2, “Multifunctional inhibitors of MEK/PI3K and mTOR/MEK/PI3K biological pathways and therapeutic methods using the same” (THE REGENTS OF THE UNIVERSITY OF MICHIGAN, priority 2016, dated 2021).
